In patent publication US20210198277A1, “AMINE-SUBSTITUTED ARYL OR HETEROARYL COMPOUNDS” (Epizyme, Inc., priority 2016, published 2021):

The compounds below were run against T1, EHMT2 (Homo sapiens, UniProt Q96KQ7) (assay: MDA-MB-231 H3K9me2 in-cell Western assay (EHMT2 ICW)). Conditions: Table VI; read-out: EHMT2 ICW IC50.
T1 construct: host or cells: MDA-MB-231
T1 sequence (Q96KQ7 1-1210): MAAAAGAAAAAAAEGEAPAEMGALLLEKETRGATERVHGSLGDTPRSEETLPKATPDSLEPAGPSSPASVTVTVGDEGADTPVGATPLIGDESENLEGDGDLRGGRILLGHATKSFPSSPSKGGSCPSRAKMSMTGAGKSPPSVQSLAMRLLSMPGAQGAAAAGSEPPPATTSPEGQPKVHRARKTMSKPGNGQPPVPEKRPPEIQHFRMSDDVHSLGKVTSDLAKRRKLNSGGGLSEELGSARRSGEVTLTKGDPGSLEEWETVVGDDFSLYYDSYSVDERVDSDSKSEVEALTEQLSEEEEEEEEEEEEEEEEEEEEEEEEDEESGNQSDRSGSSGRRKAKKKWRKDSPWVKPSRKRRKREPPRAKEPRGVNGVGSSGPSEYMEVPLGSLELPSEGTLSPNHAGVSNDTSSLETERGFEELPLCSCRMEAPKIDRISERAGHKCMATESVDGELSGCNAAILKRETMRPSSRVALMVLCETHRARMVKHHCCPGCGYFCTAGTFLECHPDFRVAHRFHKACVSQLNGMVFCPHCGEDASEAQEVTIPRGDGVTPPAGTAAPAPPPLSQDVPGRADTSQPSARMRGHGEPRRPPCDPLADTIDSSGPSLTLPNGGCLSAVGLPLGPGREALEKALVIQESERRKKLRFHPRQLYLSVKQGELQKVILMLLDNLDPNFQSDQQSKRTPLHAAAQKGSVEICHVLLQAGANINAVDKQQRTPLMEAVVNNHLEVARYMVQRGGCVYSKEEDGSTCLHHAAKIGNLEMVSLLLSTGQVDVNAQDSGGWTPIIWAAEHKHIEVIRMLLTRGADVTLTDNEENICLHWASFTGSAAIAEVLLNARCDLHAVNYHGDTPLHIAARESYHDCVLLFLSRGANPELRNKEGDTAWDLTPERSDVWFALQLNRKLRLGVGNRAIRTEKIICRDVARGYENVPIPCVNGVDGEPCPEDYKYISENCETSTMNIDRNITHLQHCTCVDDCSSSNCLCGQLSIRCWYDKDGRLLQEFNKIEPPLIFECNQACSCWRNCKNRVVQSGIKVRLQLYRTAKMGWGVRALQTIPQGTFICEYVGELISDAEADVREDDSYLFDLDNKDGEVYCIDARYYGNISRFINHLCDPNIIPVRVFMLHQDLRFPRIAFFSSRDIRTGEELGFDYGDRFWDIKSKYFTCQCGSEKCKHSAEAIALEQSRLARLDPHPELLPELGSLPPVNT
Format: cell-based
Outline: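 MDA-MB-231 cells (3,000/well) were exposed to compound for 30 min at room temperature and then 48 h at 37 °C, fixed with paraformaldehyde, and stained with anti-H3K9me2 (800 nm) plus DRAQ5 (700 nm). Per-well channel ratios gave percent inhibition, and IC50 came from a four-parameter fit of triplicate wells.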

IC50 [µM] | SMILES
1 to 10 | CNc1ccnc(Nc2ccc(OC)c(OCC(C)(O)CN3CCC3)c2)n1 (centres unmarked) [Compound 1005]
0.1 to 1 | CCN1CCC(O)(COc2cc(Nc3nccc(NC)n3)ccc2OC)C1 (centres unmarked) [Compound 1006]
> 10 | CCN1CCC(O)(COc2cc(Nc3nccc(NC)n3)ccc2OC)C1 (centres unmarked) [Compound 1007]
0.1 to 1 | CNc1ccnc(Nc2ccc(OC)c(OCC(C)CN3CCC3)c2)n1 (centres unmarked) [Compound 1008]

Second part, the compound before the results:

SMILES | IC50 [µM]
CNc1cc(C)nc(Nc2ccc(OC)c(OC[C@H](O)CN3CC(C)C3)c2)n1 [Compound 985] | 0.1 to 1
CNc1cc(C)nc(Nc2ccc(OC)c(OC[C@H](O)CN3CC(F)C3)c2)n1 [Compound 986] | 1 to 10
CNc1cc(C)nc(Nc2ccc(OC)c(CNCCN(C)C)c2)n1 [Compound 990] | 0.1 to 1
CNCC(C)COc1cc(Nc2nccc(NC)n2)ccc1OC (centres unmarked) [Compound 1009] | 1 to 10
CNCCC(C)Oc1cc(Nc2nccc(NC)n2)ccc1OC (centres unmarked) [Compound 1011] | 1 to 10
CNc1ccnc(Nc2ccc(OC)c(OCCC(C)N3CCC3)c2)n1 (centres unmarked) [Compound 1014] | 1 to 10
CNc1ccnc(Nc2ccc(OC)c(OCCC(C)NC)c2)n1 (centres unmarked) [Compound 1016] | 1 to 10
